According to ChEMBL document CHEMBL1201862, “PubChem BioAssay data set” (2004):
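A five-concentration, 48-hour dose response in 96-well plates underlies each endpoint, interpolated linearly between surrounding concentrations. GI50 marks 50% less growth.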 Active and inactive are the calls of the source. Rule as the data show it: active = GI50 up to about 1.1 µM and inactive = higher.

Assays:
Test in all cases: DTP human tumour cell line panel, 48 h
IGROV-1 = test system: IGROV-1
HCT-116 = test system: HCT-116
LOX IMVI = test system: LOX IMVI
CCRF-CEM = test system: CCRF-CEM
SK-MEL-28 = test system: SK-MEL-28
UACC-62 = test system: UACC-62
COLO 205 = test system: COLO 205
OVCAR-8 = test system: OVCAR-8
MOLT-4 = test system: MOLT-4
ACHN = test system: ACHN
RXF 393 = test system: RXF 393
SNB-19 = test system: SNB-19
SK-MEL-2 = test system: SK-MEL-2
TK-10 = test system: TK-10

Measured: GI50

O=C(N/C(=C\c1ccc(/C=C(\NC(=O)c2ccccc2)c2nc3ccccc3s2)cc1)c1nc2ccccc2s1)c1ccccc1
inactive: IGROV-1 3.85 µM | HCT-116 8.2 µM | LOX IMVI 4.21 µM | CCRF-CEM 1.56 µM | SK-MEL-28 11.1 µM | UACC-62 2.37 µM | COLO 205 5.12 µM | OVCAR-8 2.34 µM | MOLT-4 4.99 µM | ACHN 4.59 µM | RXF 393 17.7 µM | SNB-19 4.09 µM | SK-MEL-2 6.62 µM | TK-10 12.7 µM

Cc1nc2c(nc1C)C(=O)c1cc(O)ccc1C2=O
inactive: IGROV-1 68.9 µM | HCT-116 77.6 µM | LOX IMVI 53.1 µM | CCRF-CEM 48.9 µM | SK-MEL-28 98.4 µM | UACC-62 22.3 µM | COLO 205 23.1 µM | OVCAR-8 53.2 µM | MOLT-4 > 66.7 µM | ACHN > 100 µM | RXF 393 > 100 µM | SNB-19 99.1 µM | SK-MEL-2 55.6 µM | TK-10 > 100 µM

Cc1c(C#N)c(=O)[nH]c(=O)n1CCN1CCN(C(=O)NCCCCCCNC(=O)N2CCN(CCn3c(C)c(C#N)c(=O)[nH]c3=O)CC2)CC1
inactive: IGROV-1 > 100 µM | HCT-116 > 100 µM | LOX IMVI > 100 µM | CCRF-CEM > 100 µM | SK-MEL-28 > 100 µM | UACC-62 > 100 µM | COLO 205 > 100 µM | OVCAR-8 > 100 µM | MOLT-4 > 100 µM | ACHN > 100 µM | RXF 393 > 100 µM | SNB-19 > 100 µM | TK-10 > 100 µM

N#Cc1cccc(C2C(=O)c3ccc(C(=O)c4ccc5c(c4)C(=O)N(c4ccc(Oc6ccc(N7C(=O)c8ccc(C(=O)c9ccc%10c(c9)C(=O)N(c9cccc(C#N)c9)C%10=O)cc8C7=O)cc6)cc4)C5=O)cc3C2=O)c1 (configuration not stated)
inactive: IGROV-1 > 100 µM | HCT-116 > 100 µM | CCRF-CEM > 100 µM | SK-MEL-28 > 100 µM | UACC-62 > 100 µM | COLO 205 > 100 µM | OVCAR-8 > 100 µM | MOLT-4 > 100 µM | ACHN > 100 µM | RXF 393 > 100 µM | SNB-19 82.2 µM | SK-MEL-2 > 100 µM | TK-10 40.2 µM

CCCCNC(=S)Nn1c(-c2ccccc2)nc2ccccc2c1=O
inactive: IGROV-1 > 100 µM | HCT-116 > 100 µM | LOX IMVI 74.1 µM | CCRF-CEM 38.3 µM | SK-MEL-28 9.68 µM | UACC-62 > 100 µM | COLO 205 > 100 µM | OVCAR-8 > 100 µM | MOLT-4 49.9 µM | ACHN > 100 µM | RXF 393 24 µM | SK-MEL-2 > 100 µM | TK-10 > 100 µM

N[C@H](C(=O)O)[C@@H](Cl)CC(=O)O
inactive: IGROV-1 > 100 µM | HCT-116 > 100 µM | LOX IMVI > 100 µM | CCRF-CEM > 100 µM | SK-MEL-28 > 100 µM | UACC-62 > 100 µM | COLO 205 > 100 µM | OVCAR-8 > 100 µM | MOLT-4 > 100 µM | ACHN > 100 µM | RXF 393 > 100 µM | SNB-19 > 100 µM | SK-MEL-2 > 100 µM | TK-10 > 100 µM

Cc1cc(C)c(S(=O)(=O)ONC(=O)OC(C)(C)C)c(C)c1
inactive: IGROV-1 > 100 µM | HCT-116 > 100 µM | LOX IMVI > 100 µM | CCRF-CEM > 100 µM | SK-MEL-28 > 100 µM | UACC-62 > 100 µM | COLO 205 > 100 µM | OVCAR-8 > 100 µM | MOLT-4 > 100 µM | ACHN > 100 µM | RXF 393 > 100 µM | SNB-19 > 100 µM | SK-MEL-2 > 100 µM | TK-10 > 100 µM

COc1cccc2c1CCc1ccccc1CC2=O
inactive: IGROV-1 > 100 µM | HCT-116 > 100 µM | LOX IMVI > 100 µM | CCRF-CEM > 100 µM | SK-MEL-28 > 100 µM | UACC-62 > 100 µM | COLO 205 > 100 µM | OVCAR-8 > 100 µM | MOLT-4 > 100 µM | ACHN > 100 µM | RXF 393 > 100 µM | SNB-19 > 100 µM | SK-MEL-2 > 100 µM | TK-10 > 100 µM

Cc1ccc(NC(=O)/C(=N\NC(N)=S)C(C#N)c2ccccc2C)cc1C (configuration not stated)
inactive: IGROV-1 > 100 µM | HCT-116 > 100 µM | CCRF-CEM > 100 µM | SK-MEL-28 > 100 µM | UACC-62 > 100 µM | COLO 205 > 100 µM | OVCAR-8 > 100 µM | MOLT-4 > 100 µM | ACHN > 100 µM | SNB-19 > 100 µM | SK-MEL-2 > 100 µM | TK-10 > 100 µM

O=C1C=CC2(CCC23C=CC(=O)O3)O1 (configuration not stated)
inactive: IGROV-1 > 100 µM | HCT-116 > 100 µM | LOX IMVI > 100 µM | CCRF-CEM 86.5 µM | SK-MEL-28 > 100 µM | UACC-62 > 100 µM | COLO 205 > 100 µM | OVCAR-8 > 100 µM | MOLT-4 > 100 µM | ACHN > 100 µM | RXF 393 > 100 µM | SNB-19 > 100 µM | SK-MEL-2 > 100 µM | TK-10 > 100 µM

Nn1c(-c2ccccc2)nc2ccc(Br)cc2c1=O
inactive: IGROV-1 44.8 µM | HCT-116 35.3 µM | CCRF-CEM 20.2 µM | SK-MEL-28 > 100 µM | UACC-62 45.9 µM | COLO 205 32.1 µM | OVCAR-8 35.4 µM | MOLT-4 17.9 µM | ACHN 34.8 µM | SNB-19 95.3 µM | SK-MEL-2 57.1 µM | TK-10 > 100 µM

C[Si](C)(C)/N=C1\N2C(=NC1(C(F)(F)F)C(F)(F)F)Sc1ccccc12
inactive: IGROV-1 > 50 µM | HCT-116 > 50 µM | LOX IMVI > 50 µM | CCRF-CEM > 50 µM | UACC-62 > 50 µM | COLO 205 > 50 µM | OVCAR-8 > 50 µM | MOLT-4 > 50 µM | ACHN > 50 µM | RXF 393 > 50 µM | SNB-19 > 50 µM | SK-MEL-2 > 50 µM | TK-10 > 50 µM

COC(=O)C1(C(=O)OC)CC(=O)c2cc3c(cc2-c2c(cc(OC)c(OC)c2OC)C1)OCO3
inactive: IGROV-1 > 211 µM | HCT-116 111 µM | LOX IMVI > 211 µM | CCRF-CEM 173 µM | SK-MEL-28 > 211 µM | UACC-62 109 µM | COLO 205 183 µM | OVCAR-8 139 µM | MOLT-4 83.6 µM | ACHN > 211 µM | RXF 393 54.7 µM | SNB-19 55.3 µM | SK-MEL-2 > 211 µM | TK-10 > 211 µM

C[Si](C)(C)/C=C/CCC(C=O)(CCCl)c1ccccc1 (configuration not stated)
inactive: IGROV-1 41.1 µM | HCT-116 14.1 µM | LOX IMVI 19.1 µM | CCRF-CEM 29.6 µM | SK-MEL-28 32.9 µM | UACC-62 21.7 µM | COLO 205 29.2 µM | OVCAR-8 27.7 µM | MOLT-4 16.3 µM | ACHN 22.8 µM | RXF 393 22.4 µM | SNB-19 42.7 µM | SK-MEL-2 14.8 µM | TK-10 56.1 µM

O=C1C(Cl)C(c2cccc(O)c2)N1n1cnc2ccccc2c1=O (configuration not stated)
inactive: IGROV-1 60.5 µM | HCT-116 89.9 µM | LOX IMVI > 100 µM | SK-MEL-28 > 100 µM | UACC-62 > 100 µM | COLO 205 > 100 µM | OVCAR-8 > 100 µM | MOLT-4 57.5 µM | ACHN > 100 µM | RXF 393 > 100 µM | SNB-19 49.5 µM | SK-MEL-2 > 100 µM | TK-10 > 100 µM

Cc1cccc(-c2nnc3s/c(=C\c4ccc(N(C)C)cc4)c(=O)n23)c1
inactive: IGROV-1 > 100 µM | HCT-116 > 100 µM | LOX IMVI > 100 µM | CCRF-CEM > 100 µM | SK-MEL-28 > 100 µM | UACC-62 > 100 µM | COLO 205 > 100 µM | OVCAR-8 > 100 µM | MOLT-4 > 100 µM | ACHN > 100 µM | RXF 393 > 100 µM | SNB-19 > 100 µM | SK-MEL-2 > 100 µM | TK-10 > 100 µM

O=C(Nc1ccc(F)cc1)C(=O)C(C1OC(=O)c2ccccc21)[N+](=O)[O-] (configuration not stated)
inactive: IGROV-1 > 100 µM | HCT-116 > 100 µM | LOX IMVI > 100 µM | CCRF-CEM > 100 µM | SK-MEL-28 > 100 µM | UACC-62 > 100 µM | COLO 205 > 100 µM | OVCAR-8 > 100 µM | MOLT-4 > 100 µM | ACHN > 100 µM | RXF 393 > 100 µM | SNB-19 > 100 µM | SK-MEL-2 > 100 µM | TK-10 > 100 µM

CCCC(O)c1ccc2[nH]c3c(C)cc([N+](=O)[O-])c(C)c3c2c1 (configuration not stated)
inactive: HCT-116 > 100 µM | LOX IMVI > 100 µM | CCRF-CEM > 100 µM | SK-MEL-28 > 100 µM | COLO 205 93.1 µM | OVCAR-8 > 100 µM | MOLT-4 > 100 µM | ACHN > 100 µM | SNB-19 > 100 µM | SK-MEL-2 > 100 µM | TK-10 23 µM

O=C(Oc1ccc2c(-c3ccccc3)c(C(=O)Nc3ccc(Cl)cc3)c(=O)oc2c1)c1ccccc1
inactive: IGROV-1 > 100 µM | HCT-116 > 100 µM | LOX IMVI > 100 µM | CCRF-CEM > 100 µM | SK-MEL-28 > 100 µM | UACC-62 > 100 µM | COLO 205 > 100 µM | OVCAR-8 > 100 µM | MOLT-4 74.1 µM | ACHN > 100 µM | RXF 393 > 100 µM | SNB-19 > 100 µM | SK-MEL-2 > 100 µM | TK-10 > 100 µM

COC1=CC(=O)[C@]2(C)[C@H](C1=O)C(C)[C@H]2c1ccc(OC)cc1 (some centres not stated)
inactive: IGROV-1 > 100 µM | LOX IMVI > 100 µM | CCRF-CEM > 100 µM | SK-MEL-28 > 100 µM | UACC-62 > 100 µM | COLO 205 > 100 µM | OVCAR-8 > 100 µM | MOLT-4 > 100 µM | ACHN > 100 µM | RXF 393 > 100 µM | SNB-19 > 100 µM | SK-MEL-2 > 100 µM | TK-10 > 100 µM
